Laboratory results reported in the supplement of paper PMC8612539.
Converted amounts (≈) assume the structure as drawn.

Tested on: Histophilus somni
Experiment: minimum inhibitory concentration (MIC)
Description: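 Broth microdilution MIC (Sensititre BOPO7F bovine plate, CLSI methods) of 19 antimicrobials against field isolates of P. multocida, M. haemolytica, H. somni (deep nasopharyngeal swabs) and E. coli, Enterococcus spp. (rectal swabs) from weaned dairy heifers. Incubation 16-24 h at 35 C. MIC is the lowest concentration preventing visible growth. Values with <= or > lie at the tested range limits. Trimethoprim-sulfamethoxazole is given as the trimethoprim component of a 1:19 mixture.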

CC[C@H]1OC(=O)C[C@@H](O)[C@H](C)[C@@H](O[C@@H]2O[C@H](C)[C@@H](O[C@H]3C[C@@](C)(O)[C@@H](O)[C@H](C)O3)[C@H](N(C)C)[C@H]2O)[C@@H](CC=O)C[C@@H](C)C(=O)/C=C/C(C)=C/[C@@H]1CO[C@@H]1O[C@H](C)[C@@H](O)[C@@H](OC)[C@H]1OC [Tylosin]
Conditions	minimum inhibitory concentration [µg/mL]
isolate (source animal id): 3	8 (≈ 8.73 µM)
isolate (source animal id): 4	8 (≈ 8.73 µM)
isolate (source animal id): 7	8 (≈ 8.73 µM)
isolate (source animal id): 14	8 (≈ 8.73 µM)
isolate (source animal id): 15	8 (≈ 8.73 µM)
isolate (source animal id): 17	8 (≈ 8.73 µM)
isolate (source animal id): 18	8 (≈ 8.73 µM)
isolate (source animal id): 20	8 (≈ 8.73 µM)
isolate (source animal id): 23	2 (≈ 2.18 µM)
isolate (source animal id): 45	16 (≈ 17.5 µM)
isolate (source animal id): 53	16 (≈ 17.5 µM)
isolate (source animal id): 83	4 (≈ 4.37 µM)
isolate (source animal id): 88	8 (≈ 8.73 µM)
isolate (source animal id): 92	8 (≈ 8.73 µM)
isolate (source animal id): 93	8 (≈ 8.73 µM)
isolate (source animal id): 99	4 (≈ 4.37 µM)
isolate (source animal id): 100	8 (≈ 8.73 µM)
isolate (source animal id): 105	4 (≈ 4.37 µM)
isolate (source animal id): 107	8 (≈ 8.73 µM)
isolate (source animal id): 108	4 (≈ 4.37 µM)
isolate (source animal id): 109	8 (≈ 8.73 µM)
isolate (source animal id): 110	8 (≈ 8.73 µM)
isolate (source animal id): 117	4 (≈ 4.37 µM)
isolate (source animal id): 121	8 (≈ 8.73 µM)
isolate (source animal id): 123	8 (≈ 8.73 µM)
isolate (source animal id): 124	8 (≈ 8.73 µM)
isolate (source animal id): 127	8 (≈ 8.73 µM)
isolate (source animal id): 128	8 (≈ 8.73 µM)
isolate (source animal id): 130	2 (≈ 2.18 µM)
isolate (source animal id): 132	8 (≈ 8.73 µM)
isolate (source animal id): 135	8 (≈ 8.73 µM)
isolate (source animal id): 140	8 (≈ 8.73 µM)
isolate (source animal id): 141	4 (≈ 4.37 µM)
isolate (source animal id): 142	> 32
isolate (source animal id): 144	8 (≈ 8.73 µM)
isolate (source animal id): 146	4 (≈ 4.37 µM)
isolate (source animal id): 147	> 32
isolate (source animal id): 151	8 (≈ 8.73 µM)
isolate (source animal id): 153	16 (≈ 17.5 µM)
isolate (source animal id): 154	> 32
isolate (source animal id): 156	> 32
isolate (source animal id): 157	16 (≈ 17.5 µM)
isolate (source animal id): 176	32 (≈ 34.9 µM)
isolate (source animal id): 183	16 (≈ 17.5 µM)
isolate (source animal id): 186	32 (≈ 34.9 µM)
isolate (source animal id): 196	8 (≈ 8.73 µM)
isolate (source animal id): 198	8 (≈ 8.73 µM)
isolate (source animal id): 200	8 (≈ 8.73 µM)
isolate (source animal id): 206	8 (≈ 8.73 µM)
isolate (source animal id): 208	16 (≈ 17.5 µM)
isolate (source animal id): 210	8 (≈ 8.73 µM)
isolate (source animal id): 212	4 (≈ 4.37 µM)
isolate (source animal id): 215	8 (≈ 8.73 µM)
isolate (source animal id): 216	16 (≈ 17.5 µM)
isolate (source animal id): 218	8 (≈ 8.73 µM)
isolate (source animal id): 219	8 (≈ 8.73 µM)
isolate (source animal id): 224	8 (≈ 8.73 µM)
isolate (source animal id): 228	16 (≈ 17.5 µM)
isolate (source animal id): 230	32 (≈ 34.9 µM)
isolate (source animal id): 233	16 (≈ 17.5 µM)
isolate (source animal id): 238	2 (≈ 2.18 µM)
isolate (source animal id): 239	16 (≈ 17.5 µM)
isolate (source animal id): 241	16 (≈ 17.5 µM)
isolate (source animal id): 242	16 (≈ 17.5 µM)
isolate (source animal id): 243	16 (≈ 17.5 µM)
isolate (source animal id): 245	16 (≈ 17.5 µM)
isolate (source animal id): 246	8 (≈ 8.73 µM)
isolate (source animal id): 247	16 (≈ 17.5 µM)
isolate (source animal id): 248	4 (≈ 4.37 µM)
isolate (source animal id): 250	16 (≈ 17.5 µM)
isolate (source animal id): 251	32 (≈ 34.9 µM)
isolate (source animal id): 252	16 (≈ 17.5 µM)
isolate (source animal id): 254	16 (≈ 17.5 µM)
isolate (source animal id): 258	8 (≈ 8.73 µM)
isolate (source animal id): 259	8 (≈ 8.73 µM)
isolate (source animal id): 262	8 (≈ 8.73 µM)
isolate (source animal id): 264	4 (≈ 4.37 µM)
isolate (source animal id): 265	4 (≈ 4.37 µM)
isolate (source animal id): 266	8 (≈ 8.73 µM)
isolate (source animal id): 267	4 (≈ 4.37 µM)
isolate (source animal id): 269	4 (≈ 4.37 µM)
isolate (source animal id): 271	8 (≈ 8.73 µM)
isolate (source animal id): 272	4 (≈ 4.37 µM)
isolate (source animal id): 274	8 (≈ 8.73 µM)
isolate (source animal id): 276	8 (≈ 8.73 µM)
isolate (source animal id): 278	4 (≈ 4.37 µM)
isolate (source animal id): 280	4 (≈ 4.37 µM)
isolate (source animal id): 281	8 (≈ 8.73 µM)
isolate (source animal id): 283	4 (≈ 4.37 µM)
isolate (source animal id): 288	8 (≈ 8.73 µM)
isolate (source animal id): 291	8 (≈ 8.73 µM)
isolate (source animal id): 292	8 (≈ 8.73 µM)
isolate (source animal id): 296	4 (≈ 4.37 µM)
isolate (source animal id): 306	8 (≈ 8.73 µM)
isolate (source animal id): 336	8 (≈ 8.73 µM)
isolate (source animal id): 337	8 (≈ 8.73 µM)
isolate (source animal id): 341	8 (≈ 8.73 µM)
